Data from ChEMBL document CHEMBL1201862, “PubChem BioAssay data set” (2004).
The source made the active and inactive calls.

Experiments:
[1] = system: Streptococcus sp. 'group A'; test: Streptococcus pyogenes SK(-)GAS viability under kanamycin – luminescence, BacTiterGlo, confirmation, counter-screen for streptokinase expression inhibitor project, dose response (AID 1900); format: functional, organism-based
[2] = fluconazole-exposed Candida albicans growth modulators – fluorescence, retest, confirmation (AID 2467); format: functional, cell-based
Streptokinase A = molecular target: T1, Streptokinase A (Streptococcus pyogenes serotype M1, UniProt P10520); test: viability-normalized secreted streptokinase activity reduction – plasminogen activation absorbance, OD405, dose response (AID 1914); format: functional, Streptococcus pyogenes M1 GAS;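 also: secreted streptokinase activity via plasminogen activation per viability signal from cell pellet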
T1 sequence (P10520 whole entry): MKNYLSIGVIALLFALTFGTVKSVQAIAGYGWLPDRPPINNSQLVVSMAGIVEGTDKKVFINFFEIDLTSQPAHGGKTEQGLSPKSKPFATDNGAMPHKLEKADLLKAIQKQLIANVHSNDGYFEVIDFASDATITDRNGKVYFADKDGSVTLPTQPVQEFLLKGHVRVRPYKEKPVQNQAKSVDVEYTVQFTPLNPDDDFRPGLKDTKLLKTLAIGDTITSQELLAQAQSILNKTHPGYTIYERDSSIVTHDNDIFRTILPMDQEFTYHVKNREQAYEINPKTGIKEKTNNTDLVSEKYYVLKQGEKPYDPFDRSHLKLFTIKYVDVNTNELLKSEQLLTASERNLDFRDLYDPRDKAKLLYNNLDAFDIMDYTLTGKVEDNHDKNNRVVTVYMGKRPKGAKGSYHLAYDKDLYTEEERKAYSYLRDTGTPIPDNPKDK

[3] = NIH-3T3 fibroblast cytotoxicity, dose response, cytotoxicity control, cell-based, fluorescence, Alamar Blue, secondary assay (AID 2327); format: functional;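 also: NIH-3T3 mouse fibroblasts cultured with fluconazole at 8 µg/mL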
Streptococcus = test: GAS UMAA2166 growth inhibition – luminescence, BacTiterGlo, counter-screen for streptokinase expression inhibitor project, dose response (AID 1915); format: functional, organism-based;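 also: potency for reduction of bacterial viability or growth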
Cysteine protease ATG4B = Cysteine protease ATG4B (Homo sapiens, UniProt Q9Y4P1); format: functional;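 also: Fluorescence-based dose-response confirmation assay measuring inhibition of ATG4B activity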
Phospholipase A2 = Phospholipase A2 (Homo sapiens, UniProt P04054); format: functional;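 also: confirmatory dose-response counterscreen on phospholipase A2, testing hits that came from an ultra-high-throughput screen for ATG4B inhibitors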
[4] = cAMP pathway inhibition in counterscreen cell line – TR-FRET cAMP detection, counter-screen for MC4R biased antagonist project, dose response (AID 602305); format: functional, cell-based;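 also: U2OS cells stimulated with forskolin near its EC80 as the cAMP inducer; potency is for inhibition of forskolin-stimulated cAMP signaling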
[5] = molecular target: Neurotensin receptor type 1 (Homo sapiens, UniProt P30989); format: functional;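 also: Image-based confirmatory dose-response assay measuring agonist activity at NTR1; NTR1-expressing U2OS osteosarcoma cells imaged for beta-arrestin GFP spot formation; agonist potency where compounds increase beta-arrestin recruitment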
[6] = molecular target: T2, Carboxy-terminal domain RNA polymerase II polypeptide A small phosphatase 1 (Homo sapiens, UniProt Q9GZU7); test: CTDSP1 inhibitors, concentration-response, biochemical, absorbance readout, ultra-high-throughput screen actives (AID 540297); format: functional
T2 sequence (Q9GZU7 whole entry): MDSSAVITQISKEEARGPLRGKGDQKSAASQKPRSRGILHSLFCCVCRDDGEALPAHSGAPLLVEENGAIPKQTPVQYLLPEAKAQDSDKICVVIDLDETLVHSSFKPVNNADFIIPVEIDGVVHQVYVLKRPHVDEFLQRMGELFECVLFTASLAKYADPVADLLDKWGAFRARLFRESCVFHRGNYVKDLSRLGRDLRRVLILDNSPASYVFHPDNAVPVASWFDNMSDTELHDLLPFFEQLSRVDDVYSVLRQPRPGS

Melanocortin receptor 4 = Melanocortin receptor 4 (Homo sapiens, UniProt P32245); test: inhibitors of MC4R cAMP signaling – cell-based, TR-FRET, biased antagonists, dose response (AID 602298); format: functional;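 also: antagonist potency against agonist-stimulated cAMP production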
[7] = molecular target: T3, Voltage-gated N-type calcium channel alpha-1B subunit/Amyloid beta A4 precursor protein-binding family A member 1 (Homo sapiens, UniProt Q00975+Q02410); format: protein assay
[8] = molecular target: T4, Histone-lysine N-methyltransferase NSD2 (Homo sapiens, UniProt O96028); format: biochemical
T4 sequence (O96028 whole entry): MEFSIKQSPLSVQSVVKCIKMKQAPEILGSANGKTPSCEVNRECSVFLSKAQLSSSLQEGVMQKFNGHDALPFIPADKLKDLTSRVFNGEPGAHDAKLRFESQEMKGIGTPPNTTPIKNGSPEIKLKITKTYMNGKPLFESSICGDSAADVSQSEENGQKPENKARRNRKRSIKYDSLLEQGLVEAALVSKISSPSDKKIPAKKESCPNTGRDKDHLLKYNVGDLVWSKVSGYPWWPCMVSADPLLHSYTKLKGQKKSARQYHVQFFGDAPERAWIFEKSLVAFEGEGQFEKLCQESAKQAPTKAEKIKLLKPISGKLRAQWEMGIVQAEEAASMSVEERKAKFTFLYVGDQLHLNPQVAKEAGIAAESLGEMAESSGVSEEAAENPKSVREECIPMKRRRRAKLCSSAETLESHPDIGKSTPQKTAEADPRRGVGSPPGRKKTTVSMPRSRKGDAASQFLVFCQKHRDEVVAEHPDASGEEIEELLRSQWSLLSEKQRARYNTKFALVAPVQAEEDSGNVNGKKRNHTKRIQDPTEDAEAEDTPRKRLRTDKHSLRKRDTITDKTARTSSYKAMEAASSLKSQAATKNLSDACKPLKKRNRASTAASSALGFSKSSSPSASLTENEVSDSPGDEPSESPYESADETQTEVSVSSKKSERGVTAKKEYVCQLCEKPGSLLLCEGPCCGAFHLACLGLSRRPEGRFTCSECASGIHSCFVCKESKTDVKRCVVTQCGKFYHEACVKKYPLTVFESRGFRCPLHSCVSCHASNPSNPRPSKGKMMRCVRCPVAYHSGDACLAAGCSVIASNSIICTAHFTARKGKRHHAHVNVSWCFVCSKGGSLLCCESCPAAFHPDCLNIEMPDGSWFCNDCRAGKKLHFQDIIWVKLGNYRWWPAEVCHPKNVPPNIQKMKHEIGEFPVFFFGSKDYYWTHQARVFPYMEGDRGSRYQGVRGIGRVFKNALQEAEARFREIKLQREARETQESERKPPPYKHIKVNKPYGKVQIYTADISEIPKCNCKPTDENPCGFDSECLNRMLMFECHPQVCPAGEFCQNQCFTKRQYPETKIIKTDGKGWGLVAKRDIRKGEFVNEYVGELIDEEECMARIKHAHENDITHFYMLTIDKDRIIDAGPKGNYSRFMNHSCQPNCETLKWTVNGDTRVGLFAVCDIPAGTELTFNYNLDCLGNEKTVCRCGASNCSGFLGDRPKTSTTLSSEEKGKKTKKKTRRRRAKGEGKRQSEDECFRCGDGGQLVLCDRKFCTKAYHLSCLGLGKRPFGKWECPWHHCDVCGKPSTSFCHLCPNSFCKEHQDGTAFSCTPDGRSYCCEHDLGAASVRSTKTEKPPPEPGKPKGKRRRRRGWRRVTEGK

[9] = molecular target: T3, Voltage-gated N-type calcium channel alpha-1B subunit/Amyloid beta A4 precursor protein-binding family A member 1; format: protein assay; remark: listed apart in the source
Beta Lactamase = Beta Lactamase (Pseudomonas aeruginosa, UniProt Q932Y6); test: BLA reporter interference, concentration series – BLA reporter cells, FRET fluorescence, artefact control for TLR9-MyD88 binding inhibitor project, dose response (AID 588341); format: cell-based;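 also: cell based assay in CHO-K1 cells stably expressing beta-lactamase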
CHO = CHO cell viability loss, potency – luminescence, cytotoxicity control for TLR9-MyD88 binding inhibitor project, dose response (AID 588339); format: functional, cell-based, hamster; conditions: Cricetulus griseus;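 also: CHO cells stably coexpressing TLR9 and MyD88 fusions from primary screen; compound exposure lasted 48 hours before viability readout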
[10] = molecular target: UDP-galactopyranose mutase (Mycobacterium tuberculosis, UniProt P9WIQ1); test: Inhibitors of Mycobacterium tuberculosis UDP-galactopyranose mutase (UGM) enzyme Measured in Biochemical System Using Plate Reader - 2105-02_Inhibitor_Dose_CherryPick_Activity. [Related pubchem assays (depositor defined):AID504439]
CHO-K1 = test: Counterscreen for antagonists of the orexin 1 receptor (OX1R; HCRTR1): Homogeneous time resolved fluorescence (HTRF)-based cell-based dose response assay to identify antagonists of the parental CHO-K1 cell line. [Related pubchem assays (depositor defined):AID434989, AID435008, AID463079, AID485270, AID492963, AID492964, AID492965, AID493232, AID504699, AID504701]; format: functional; conditions: Cricetulus griseus
[11] = molecular target: T5, Orexin/Hypocretin receptor type 1 (Homo sapiens, UniProt O43613); test: Homogeneous Time Resolved Fluorescence (HTRF)-based cell-based high throughput dose response assay for antagonists of the orexin 1 receptor (OX1R; HCRTR1). [Related pubchem assays (depositor defined):AID434989, AID435008, AID463079, AID485270, AID492963, AID492964, AID492965, AID493232, AID504717, AID504718]; format: functional
Orexin receptor type 2 [12] = molecular target: T6, Orexin receptor type 2 (Homo sapiens, UniProt O43614); test: Counterscreen assay for antagonists of the orexin 1 receptor (OX1R; HCRTR1): Homogeneous Time Resolved Fluorescence (HTRF)-based cell-based dose response assay for antagonists of the orexin 2 receptor (OX2R; HCRTR2), run by assay provider.; format: functional
[13] = Counterscreen for antagonists of the orexin 1 receptor (OX1R; HCRTR1): Fluorescence-based cell-based high throughput dose response assay to identify antagonists of the parental CHO cell line. [Related pubchem assays (depositor defined):AID434989, AID435008, AID463079, AID485270, AID492963, AID492964, AID492965, AID493232, AID504699, AID504701]; format: functional
[14] = molecular target: T5, Orexin/Hypocretin receptor type 1; test: Fluorescence-based cell-based high throughput dose response assay for antagonists of the orexin 1 receptor (OX1R; HCRTR1). [Related pubchem assays (depositor defined):AID434989, AID435008, AID463079, AID485270, AID492963, AID492964, AID492965, AID493232, AID504717, AID504718]; format: functional
Orexin receptor type 2 [15] = molecular target: T6, Orexin receptor type 2; test: Counterscreen assay for antagonists of the orexin 1 receptor (OX1R; HCRTR1): Fluorescence-based cell-based dose response assay for antagonists of the orexin 2 receptor (OX2R; HCRTR2), run by assay provider.; format: functional
[16] = molecular target: Protein disulfide-isomerase (Homo sapiens, UniProt P07237); test: inhibition of PDI-driven insulin aggregation – biochemical, turbidity, absorbance, cherry-picked samples, dose response (AID 602350); format: functional
[17] = molecular target: Glycogen synthase kinase-3 beta (Homo sapiens, UniProt P49841); format: functional;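 also: value comes from a broad kinome profiling panel, with GSK3B as the panel member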
[18] = molecular target: Serine/threonine-protein kinase pim-1 (Homo sapiens, UniProt P11309); format: functional
[19] = molecular target: Cell division cycle 7-related protein kinase (Homo sapiens, UniProt O00311); format: functional;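 also: value obtained from a kinome-wide kinase panel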
[20] = molecular target: Homeodomain-interacting protein kinase 2 (Homo sapiens, UniProt Q9H2X6); format: functional;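 also: measured within a kinome-wide kinase profiling panel, HIPK2 being one panel member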
[21] = molecular target: cAMP-dependent protein kinase catalytic subunit alpha (Homo sapiens, UniProt P17612); format: functional
[22] = molecular target: Mitogen-activated protein kinase kinase kinase kinase 4 (Homo sapiens, UniProt O95819); format: functional
[23] = molecular target: Interleukin-1 receptor-associated kinase 4 (Homo sapiens, UniProt Q9NWZ3); format: functional
[24] = molecular target: Dual specificity protein kinase CLK4 (Homo sapiens, UniProt Q9HAZ1); format: functional
[25] = A Cell Based Secondary Assay to Explore Cytotoxicity in HepG2 Cells of Compounds that Modulate Mycobacterium tuberculosis in Media Containing Glycerol versus Media without Glycerol (2).; format: functional
[26] = Vero cell cytotoxicity, dose response, cytotoxicity control for M. tuberculosis growth inhibitor project, Vero cells, purified and synthesized compounds, set 4 (AID 504854); format: functional; conditions: Mycobacterium tuberculosis
[27] = THP-1 cell cytotoxicity, cytotoxicity control, set 4 (AID 504911); format: functional; conditions: Mycobacterium tuberculosis
[28] = THP-1 cell cytotoxicity, dose response, cytotoxicity control, set 3 (AID 504852); format: functional; conditions: Mycobacterium tuberculosis
[29] = Vero cell cytotoxicity, cytotoxicity control for M. tuberculosis inhibitor project, purified and synthesized samples, set 3 (AID 504684); format: functional

T5 sequence (O43613 whole entry): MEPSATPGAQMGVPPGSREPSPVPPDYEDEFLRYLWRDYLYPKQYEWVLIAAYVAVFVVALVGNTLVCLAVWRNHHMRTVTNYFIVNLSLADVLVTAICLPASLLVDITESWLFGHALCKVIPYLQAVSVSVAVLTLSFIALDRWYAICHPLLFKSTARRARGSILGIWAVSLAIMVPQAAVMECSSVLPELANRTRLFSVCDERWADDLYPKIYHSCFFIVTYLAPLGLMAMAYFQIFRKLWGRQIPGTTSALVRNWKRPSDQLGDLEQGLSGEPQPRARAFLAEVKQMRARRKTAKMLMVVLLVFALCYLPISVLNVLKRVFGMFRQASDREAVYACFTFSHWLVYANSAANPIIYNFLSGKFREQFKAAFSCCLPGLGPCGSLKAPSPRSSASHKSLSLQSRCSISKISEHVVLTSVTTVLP
T6 sequence (O43614 whole entry): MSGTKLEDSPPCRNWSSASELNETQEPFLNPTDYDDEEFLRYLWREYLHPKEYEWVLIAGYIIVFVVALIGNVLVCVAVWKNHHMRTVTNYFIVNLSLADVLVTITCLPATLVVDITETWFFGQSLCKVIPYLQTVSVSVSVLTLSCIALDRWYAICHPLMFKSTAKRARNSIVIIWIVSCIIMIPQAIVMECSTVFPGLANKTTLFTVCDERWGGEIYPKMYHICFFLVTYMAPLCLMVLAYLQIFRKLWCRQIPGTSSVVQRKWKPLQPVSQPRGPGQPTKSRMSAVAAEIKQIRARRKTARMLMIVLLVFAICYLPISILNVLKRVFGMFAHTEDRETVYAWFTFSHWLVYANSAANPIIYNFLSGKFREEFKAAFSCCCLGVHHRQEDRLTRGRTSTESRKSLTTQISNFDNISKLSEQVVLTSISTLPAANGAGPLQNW
T3 sequence (Q00975 whole entry): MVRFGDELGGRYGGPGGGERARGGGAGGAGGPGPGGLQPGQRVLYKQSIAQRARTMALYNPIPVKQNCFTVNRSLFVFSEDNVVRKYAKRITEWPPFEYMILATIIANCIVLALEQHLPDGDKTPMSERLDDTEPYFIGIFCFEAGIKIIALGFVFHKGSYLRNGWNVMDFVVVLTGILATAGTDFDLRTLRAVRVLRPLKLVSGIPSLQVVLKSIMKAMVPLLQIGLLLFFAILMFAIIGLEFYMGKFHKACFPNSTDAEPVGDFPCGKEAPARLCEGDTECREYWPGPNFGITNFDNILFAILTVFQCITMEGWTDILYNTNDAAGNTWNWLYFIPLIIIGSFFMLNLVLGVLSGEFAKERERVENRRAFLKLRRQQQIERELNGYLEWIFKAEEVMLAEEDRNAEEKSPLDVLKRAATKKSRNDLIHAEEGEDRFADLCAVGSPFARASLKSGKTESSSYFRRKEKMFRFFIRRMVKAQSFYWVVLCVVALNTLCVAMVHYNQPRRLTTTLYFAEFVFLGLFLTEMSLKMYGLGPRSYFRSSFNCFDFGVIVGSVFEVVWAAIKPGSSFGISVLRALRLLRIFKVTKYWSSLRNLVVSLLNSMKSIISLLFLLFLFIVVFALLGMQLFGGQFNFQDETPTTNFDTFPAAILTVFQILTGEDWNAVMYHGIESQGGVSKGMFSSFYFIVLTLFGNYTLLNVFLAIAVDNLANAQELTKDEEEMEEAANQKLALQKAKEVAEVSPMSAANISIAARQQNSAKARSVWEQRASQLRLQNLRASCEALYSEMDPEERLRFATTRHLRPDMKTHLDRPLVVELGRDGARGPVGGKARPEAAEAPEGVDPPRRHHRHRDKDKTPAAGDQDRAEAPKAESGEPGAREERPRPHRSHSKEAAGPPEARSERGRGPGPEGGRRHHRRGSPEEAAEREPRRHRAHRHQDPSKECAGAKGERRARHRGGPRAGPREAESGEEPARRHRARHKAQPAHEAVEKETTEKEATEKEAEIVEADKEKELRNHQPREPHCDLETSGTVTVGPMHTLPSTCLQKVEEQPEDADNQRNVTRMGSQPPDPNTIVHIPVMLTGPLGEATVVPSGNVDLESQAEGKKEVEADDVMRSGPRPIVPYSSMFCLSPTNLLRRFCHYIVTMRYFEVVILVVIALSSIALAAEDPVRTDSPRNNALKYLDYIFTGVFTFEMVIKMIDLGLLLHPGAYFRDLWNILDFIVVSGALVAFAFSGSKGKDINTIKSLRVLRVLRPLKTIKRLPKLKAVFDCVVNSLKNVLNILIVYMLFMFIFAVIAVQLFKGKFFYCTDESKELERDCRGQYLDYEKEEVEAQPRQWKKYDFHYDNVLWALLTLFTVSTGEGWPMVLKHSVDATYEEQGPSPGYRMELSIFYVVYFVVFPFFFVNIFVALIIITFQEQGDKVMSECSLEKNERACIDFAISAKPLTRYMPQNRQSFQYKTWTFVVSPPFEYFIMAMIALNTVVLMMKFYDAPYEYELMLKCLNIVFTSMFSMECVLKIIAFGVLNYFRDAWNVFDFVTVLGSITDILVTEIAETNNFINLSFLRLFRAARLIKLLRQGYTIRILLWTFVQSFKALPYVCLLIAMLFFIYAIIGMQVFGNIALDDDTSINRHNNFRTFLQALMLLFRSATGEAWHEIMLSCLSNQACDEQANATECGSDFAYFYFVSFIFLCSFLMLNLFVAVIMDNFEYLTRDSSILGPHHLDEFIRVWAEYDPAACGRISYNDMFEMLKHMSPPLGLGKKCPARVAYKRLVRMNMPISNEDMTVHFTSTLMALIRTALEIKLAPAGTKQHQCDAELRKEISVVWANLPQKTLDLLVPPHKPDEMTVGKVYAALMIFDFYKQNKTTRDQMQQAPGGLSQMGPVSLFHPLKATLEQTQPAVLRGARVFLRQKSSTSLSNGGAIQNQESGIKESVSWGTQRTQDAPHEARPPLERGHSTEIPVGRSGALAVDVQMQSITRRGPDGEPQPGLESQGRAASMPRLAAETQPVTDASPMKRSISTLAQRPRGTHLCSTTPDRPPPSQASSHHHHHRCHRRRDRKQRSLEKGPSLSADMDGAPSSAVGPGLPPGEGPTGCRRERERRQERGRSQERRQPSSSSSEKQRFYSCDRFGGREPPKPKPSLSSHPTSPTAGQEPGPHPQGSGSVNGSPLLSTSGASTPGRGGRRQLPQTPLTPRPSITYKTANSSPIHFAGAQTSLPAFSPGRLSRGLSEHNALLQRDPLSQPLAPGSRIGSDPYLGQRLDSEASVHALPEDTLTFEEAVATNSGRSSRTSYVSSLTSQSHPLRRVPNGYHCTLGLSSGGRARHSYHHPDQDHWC
T3 sequence (Q02410 whole entry): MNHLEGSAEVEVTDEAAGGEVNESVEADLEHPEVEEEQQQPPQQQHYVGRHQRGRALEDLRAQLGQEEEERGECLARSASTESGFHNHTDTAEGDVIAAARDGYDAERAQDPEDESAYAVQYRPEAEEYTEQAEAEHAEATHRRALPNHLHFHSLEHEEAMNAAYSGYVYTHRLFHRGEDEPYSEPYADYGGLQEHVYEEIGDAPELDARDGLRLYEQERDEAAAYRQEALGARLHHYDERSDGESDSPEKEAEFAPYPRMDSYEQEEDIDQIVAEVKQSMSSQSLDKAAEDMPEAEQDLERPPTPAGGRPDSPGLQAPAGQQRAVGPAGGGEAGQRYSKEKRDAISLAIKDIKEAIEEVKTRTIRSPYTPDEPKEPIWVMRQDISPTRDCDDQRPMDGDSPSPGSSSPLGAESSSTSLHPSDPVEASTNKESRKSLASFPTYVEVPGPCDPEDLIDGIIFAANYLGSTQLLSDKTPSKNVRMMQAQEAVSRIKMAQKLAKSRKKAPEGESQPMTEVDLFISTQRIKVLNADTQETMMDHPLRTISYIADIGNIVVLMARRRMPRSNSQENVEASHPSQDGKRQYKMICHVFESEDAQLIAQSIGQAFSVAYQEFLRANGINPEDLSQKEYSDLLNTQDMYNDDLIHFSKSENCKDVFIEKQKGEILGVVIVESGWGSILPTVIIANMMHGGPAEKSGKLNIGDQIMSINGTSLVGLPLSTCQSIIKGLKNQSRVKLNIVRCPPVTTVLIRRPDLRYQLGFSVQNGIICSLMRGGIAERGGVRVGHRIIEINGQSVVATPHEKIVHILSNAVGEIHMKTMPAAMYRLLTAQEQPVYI
Sequence of UDP-galactopyranose mutase (P9WIQ1 whole entry): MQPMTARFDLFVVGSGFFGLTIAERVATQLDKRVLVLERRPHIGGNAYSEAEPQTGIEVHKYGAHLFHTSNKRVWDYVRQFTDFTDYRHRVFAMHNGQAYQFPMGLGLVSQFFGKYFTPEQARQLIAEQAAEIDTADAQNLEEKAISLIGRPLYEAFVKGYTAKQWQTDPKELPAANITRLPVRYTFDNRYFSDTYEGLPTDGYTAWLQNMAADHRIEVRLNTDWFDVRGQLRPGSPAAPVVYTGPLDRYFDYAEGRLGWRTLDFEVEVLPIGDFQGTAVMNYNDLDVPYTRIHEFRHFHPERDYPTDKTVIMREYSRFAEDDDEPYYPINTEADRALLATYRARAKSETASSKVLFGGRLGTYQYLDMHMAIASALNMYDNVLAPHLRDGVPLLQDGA
Sequence of Beta Lactamase (Q932Y6 whole entry, the tested form may be a part): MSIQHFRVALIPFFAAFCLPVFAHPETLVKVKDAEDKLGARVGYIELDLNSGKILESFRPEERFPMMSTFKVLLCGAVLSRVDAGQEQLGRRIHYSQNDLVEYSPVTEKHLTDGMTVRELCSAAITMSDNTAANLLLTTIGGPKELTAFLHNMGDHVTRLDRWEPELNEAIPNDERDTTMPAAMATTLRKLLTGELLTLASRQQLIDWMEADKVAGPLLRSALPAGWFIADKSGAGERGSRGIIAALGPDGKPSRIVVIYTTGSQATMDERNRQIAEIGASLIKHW
Sequence of Melanocortin receptor 4 (P32245 whole entry): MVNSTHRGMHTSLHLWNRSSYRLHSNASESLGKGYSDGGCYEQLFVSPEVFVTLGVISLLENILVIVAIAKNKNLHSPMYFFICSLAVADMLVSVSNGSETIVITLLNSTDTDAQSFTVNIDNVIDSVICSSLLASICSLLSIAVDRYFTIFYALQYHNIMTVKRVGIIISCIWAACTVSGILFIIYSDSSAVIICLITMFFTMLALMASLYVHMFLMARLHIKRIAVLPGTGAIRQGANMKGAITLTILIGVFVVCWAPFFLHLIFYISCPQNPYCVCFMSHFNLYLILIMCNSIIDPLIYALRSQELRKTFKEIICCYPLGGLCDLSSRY

## O=C1NC(=O)/C(=C/c2ccccc2Oc2ccc(Cl)cc2)S1
[1]
  EC50: 7.87 µM (active)
[2]
  EC50: 5.01 µM (active)
Streptokinase A
  EC50: > 50 µM (not active)
[3]
  EC50: > 160 µM (inactive)
Streptococcus
  EC50: 7.13 µM (active)
Cysteine protease ATG4B
  IC50: 9.09 µM (active)
Phospholipase A2
  IC50: 13.9 µM (active)

## O=C1NC(=O)C(=Cc2ccc(SC3CCCCC3)o2)C(=O)N1
[4]
  IC50: > 64.6 µM (inactive)
[5]
  EC50: 12.7 µM (active)
[6]
  IC50: 5.67 µM (active)
Melanocortin receptor 4
  IC50: > 21.5 µM (inactive)
[7]
  IC50: 14.5 µM (active)
[8]
  AC50: > 20 µM (inactive)
[9]
  IC50: > 50 µM (inactive)

## O=C(NCc1cccc(F)c1)c1cccc2c1C(=O)c1ccc(N3CCC(Cc4ccccc4)CC3)cc1S2(=O)=O
Beta Lactamase
  IC50: 3.21 µM (active)
CHO
  IC50: > 49.8 µM (inactive)
[10]
  AC50: 5.93 µM (active)

## Cc1ccc(/C=C2/Sc3ccccc3N(CC(=O)NCC3CCCO3)C2=O)cc1 (configuration not stated)
CHO-K1
  IC50: > 66.2 µM (inactive)
[11]
  IC50: 1.77 µM (active)
Orexin receptor type 2 [12]
  IC50: > 50 µM (inactive)
[13]
  IC50: > 49.8 µM (inactive)
[14]
  IC50: 5.59 µM (active)
Orexin receptor type 2 [15]
  IC50: 29.8 µM (inactive)

## C/C=C(\C)C(=O)NCCN1C2=NC[C@H](Cc3ccc(O)cc3)N2C[C@H]1Cc1ccc(O)cc1
[16]
  AC50: 15.4 µM (active)

## O=C1Nc2ccccc2Nc2cc(-c3ccncc3F)ccc21
[17]
  Ki: 0.158 µM (active)
[18]
  Ki: > 10 µM (inactive)
[19]
  Ki: 0.00398 µM (active)
[20]
  Ki: 0.631 µM (active)
[21]
  Ki: 1 µM (active)
[22]
  Ki: 0.794 µM (active)
[23]
  Ki: 1.58 µM (active)
[24]
  Ki: 0.0251 µM (active)

## CC1CCN(C(=O)C2CCN(c3nnc(-n4cccc4)s3)CC2)CC1
[25]
  CC50: > 50 µM (active)
[26]
  CC50: > 100 µM (active)
[27]
  CC50: > 100 µM (active)
[28]
  CC50: > 100 µM (active)
[29]
  CC50: > 100 µM (active)
